From US20050032873A1, “3-Amino chroman and 2-amino tetralin derivatives” (Wyeth, priority 2003, published 2005) come the findings set out here.

Assay [1] deals with T1, 5-HT1A receptor (Homo sapiens, UniProt P08908).
T1 sequence (P08908 1-422): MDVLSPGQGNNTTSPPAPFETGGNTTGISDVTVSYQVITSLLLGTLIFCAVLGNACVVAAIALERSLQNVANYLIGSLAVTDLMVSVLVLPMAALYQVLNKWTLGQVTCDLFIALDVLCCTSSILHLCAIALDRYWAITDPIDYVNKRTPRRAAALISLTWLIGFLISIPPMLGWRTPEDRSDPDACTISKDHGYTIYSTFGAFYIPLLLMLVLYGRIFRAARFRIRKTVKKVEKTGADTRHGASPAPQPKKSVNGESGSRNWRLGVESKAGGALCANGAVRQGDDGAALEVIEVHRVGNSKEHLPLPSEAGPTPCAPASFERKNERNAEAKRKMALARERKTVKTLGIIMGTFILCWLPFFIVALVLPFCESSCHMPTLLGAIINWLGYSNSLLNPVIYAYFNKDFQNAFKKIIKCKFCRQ
Nature of the assay: cAMP accumulation assay, 5-HT1A function. Type of assay: cell-based. The settings on record: for pIC50: read-out: 5-HT1A Function cAMP IC50; for Emax / 5-HT1A Function cAMP (Emax): in brackets after EC50 or IC50; for Emax: read-out: 5-HT1A Function cAMP (Emax); for pEC50: cells marked EC50 (agonist). (cAMP levels reflect the balance of adenylyl cyclase and phosphodiesterase activity.)

The target in assay [2] is T2, cloned human 5-HT1A receptors (Homo sapiens, UniProt P08908).
T2 construct: expressed in transfected cells
T2 sequence (P08908 1-422): T1 sequence (P08908 1-422)
The experiment in a line: 35S-GTPγS binding assay, 5-HT1A function. Type of assay: biochemical. As to conditions: for pIC50: read-out: 5-HT1A Function GTPγS IC50; for pEC50: agonist potency. (In general: GTPγS resists hydrolysis and so accumulates on activated G proteins.)

Assay [3] deals with T1, 5-HT1A receptor. The experiment in a line: 5-HT1A receptor affinity: displacement of [3H] 8-OH-DPAT. In kind it is binding. Also on record: expressed in transfected cells. The settings on record: displacement of [3H] 8-OH-DPAT, CHO cells stably transfected with human 5-HT1A receptors; for pKi: read-out: 5-HT1A Receptor Affinity Ki. For orientation: Displacement assays read how much labelled ligand stays bound in the presence of the test substance.

Assay [4] deals with T3, serotonin transporter (Rattus norvegicus, UniProt P31652).
T3 construct: displace ^3H-paroxetine from male rat cortical membranes; from tissue; host or cells: male rat cortical membranes
T3 sequence (P31652 whole entry): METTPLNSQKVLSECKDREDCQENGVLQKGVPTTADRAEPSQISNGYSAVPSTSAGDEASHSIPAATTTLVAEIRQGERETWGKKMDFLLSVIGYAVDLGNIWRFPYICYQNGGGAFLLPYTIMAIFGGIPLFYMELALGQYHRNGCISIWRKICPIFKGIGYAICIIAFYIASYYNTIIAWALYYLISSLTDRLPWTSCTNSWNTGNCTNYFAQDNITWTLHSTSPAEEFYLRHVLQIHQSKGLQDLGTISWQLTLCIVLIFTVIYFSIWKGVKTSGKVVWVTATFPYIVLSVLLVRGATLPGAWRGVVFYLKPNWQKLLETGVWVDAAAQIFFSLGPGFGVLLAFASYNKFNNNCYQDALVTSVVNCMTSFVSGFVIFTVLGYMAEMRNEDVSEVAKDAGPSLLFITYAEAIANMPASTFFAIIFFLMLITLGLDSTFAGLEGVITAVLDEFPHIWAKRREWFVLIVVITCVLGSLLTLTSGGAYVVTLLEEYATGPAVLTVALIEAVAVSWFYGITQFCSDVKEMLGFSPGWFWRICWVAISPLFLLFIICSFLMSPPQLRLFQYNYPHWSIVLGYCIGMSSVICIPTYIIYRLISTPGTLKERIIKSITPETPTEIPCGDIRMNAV
The experiment in a line: 5-HT transporter affinity: displacement of 3H-paroxetine from male rat cortical membranes. In kind it is binding. As to conditions: displacement of 3H-paroxetine, male rat cortical membranes; for pKi: read-out: 5-HT Transporter Affinity Ki.

[5] abbreviates: antagonist potency, reversal of 8-OH-DPAT.
The mark [6] stands for this setting: maximum inhibitory effect, in brackets after IC50, read-out: 5-HT1A Function GTPγS (Imax).
The mark [7] stands for this setting: maximum stimulatory effect, in brackets after EC50, read-out: 5-HT1A Function GTPγS (Emax).
Where [8] appears, read: maximum inhibitory effect, in brackets after IC50.

As a reminder, the pIC50 is the IC50 on a negative log10 scale, so that one unit is a factor of ten. In general, pKi refers to the negative decadic logarithm of the Ki, by convention in mol/L. Usually pEC50 stands for −log10 of the EC50, conventionally taken in molar units. A low value points to a high EC50. What is called IC50 is the point on the concentration scale where inhibition reaches its midpoint. By Ki is commonly meant a measure of affinity in units of concentration, obtained from inhibition or displacement.

Molecules are shown by their SMILES. pEC50, pIC50, pKi: −log10 of the molar value. Like-named read-outs stand apart in the source and are kept apart here.

As to `NC(=O)c1ccc(Cl)c2c1CC(N(CCCc1c[nH]c3ccc(F)cc13)C1CCC1)CO2` (stereo not drawn) [Compound 7, 8-chloro-3-{cyclobutyl[3-(5-fluoro-1H-indol-3-yl)propyl]amino}chromane-5-carboxamide], the negative-log IC50 (pIC50) in assay [1] (cells marked IC50 (antagonist)) was 7.22; in assay [2] (setting [5]), 5.78. Moreover, the Emax in assay [1] amounted to 0%; in assay [2] (setting [6]) it was 100%. In addition, the results for the negative logarithm of the Ki (pKi) in assay [3] and in assay [4] were 8.21 and 8.49, respectively.
`C[C@@H](CCN(C1CCC1)[C@H]1COc2c(F)ccc(C(N)=O)c2C1)c1c[nH]c2ccc(F)cc12` [Compound 153a, (3R)-3-{cyclobutyl[(3S)-3-(5-fluoro-1H-indol-3-yl)butyl]amino}-8-fluorochromane-5-carboxamide]: the pIC50 in assay [1] (cells marked IC50 (antagonist)) is 6.14; in assay [2] (setting [5]), 5.44. For the same compound, the Emax in assay [1] turned out to be 0%; in assay [2] (setting [6]), 100%. The pKi was 7.70 in assay [3] and 7.21 in assay [4].
As for `CCN(CCCCc1c[nH]c2ccc(F)cc12)C1COc2c(C(N)=O)ccc(F)c2C1` (stereo not drawn) [Compound 127, 3-{ethyl[4-(5-fluoro-1H-indol-3-yl)butyl]amino}-5-fluorochromane-8-carboxamide], the pEC50 in assay [1] was 6.11; in assay [2], 5.89. In addition, the figures for the Emax in assay [1] and in assay [2] (setting [7]) were 81.5% and 50%, respectively. For the same compound, the negative logarithm of the Ki (pKi) is 6.49 in assay [3] and 8.00 in assay [4].
For the compound `CCCN(CCCc1c[nH]c2ccc(F)cc12)C1COc2c(F)ccc(C(N)=O)c2C1` (single isomer, unassigned; (+)) [Compound 2b, (+)-8-fluoro-3-[[3-(5-fluoro-1H-indol-3-yl)propyl](propyl)amino]-3,4-dihydro-2H-chromene-5-carboxamide], the pEC50 in assay [1] was 7.70; in assay [2], 7.44. This compound also gave a 5-HT1A Function cAMP (Emax) in assay [1] of 97%. Moreover, the Emax in assay [2] (setting [7]) is 80%. For the same compound, the figures for the pKi in assay [3] and in assay [4] were 8.66 and 8.41, respectively.
Regarding `NC(=O)c1ccc(F)c2c1CC(N(CCCCc1c[nH]c3ccc(F)cc13)CC1CC1)CO2` (stereo not drawn) [Compound 82, 3-{(cyclopropylmethyl)[4-(5-fluoro-1H-indol-3-yl)butyl]amino}-8-fluorochromane-5-carboxamide], the negative-log IC50 (pIC50) is 7.29 in assay [1] (cells marked IC50 (antagonist)) and 6.79 in assay [2] (setting [5]). For the same compound, the Emax stood at 0% in assay [1] and 100% in assay [2] (setting [6]). Also, the pKi in assay [3] was 8.79; in assay [4] it was 8.45.
For the compound `CCCN(CCCc1c[nH]c2ccc(F)cc12)C1COc2cccc(OC)c2C1` (stereo not drawn) [Compound 23, [3-(5-fluoro-1H-indol-3-yl)propyl]-N-(5-methoxy-chroman-3-yl)propylamine], the results for the pEC50 in assay [1] and in assay [2] were 7.41 and 7.00, respectively. The Emax in assay [1] was 80.5%; in assay [2] (setting [7]) it was 100%. Besides, the pKi was 7.80 in assay [3] and 8.05 in assay [4].
As to `NC(=O)c1cccc2c1CC(N(CCCc1c[nH]c3ccc(F)cc13)C1CCC1)CO2` (single isomer, unassigned; (+)) [Compound 134b, (+)-3-{cyclobutyl[3-(5-fluoro-1H-indol-3-yl)propyl]amino}chromane-5-carboxamide], the pEC50 in assay [1] was 7.35; in assay [2], 6.24. Besides, the 5-HT1A Function cAMP (Emax) in assay [1] was 66.5%. In assay [2] (maximum stimulatory effect, in brackets after EC50), this compound yielded a 5-HT1A Function GTPγS (Emax) of 71%. Moreover, the negative logarithm of the Ki (pKi) in assay [3] was 7.53; in assay [4] it was 8.14.
With `CCCN(CCCc1c[nH]c2ccc(F)cc12)C1COc2c(F)ccc(C(N)=O)c2C1` (stereo not drawn) [Compound 2, 8-fluoro-3-{[3-(5-fluoro-1H-indol-3-yl)propyl](propyl)amino}chromane-5-carboxamide], the pEC50 in assay [1] was 7.98; in assay [2], 6.77. Besides, the values for the Emax in assay [1] and in assay [2] (setting [7]) were 83.5% and 77%, respectively. For the same compound, the pKi in assay [3] is 8.53; in assay [4], 8.22.
In the case of `CCN(CCc1c[nH]c2ccc(F)cc12)C1COc2c(F)ccc(C(N)=O)c2C1` (stereo not drawn) [Compound 76, 3-{ethyl[2-(5-fluoro-1H-indol-3-yl)ethyl]amino}-8-fluorochromane-5-carboxamide], the IC50 in assay [1] (5-HT1A Function cAMP IC50 (nM), cells marked IC50 (antagonist)) was determined as 68.2 nM; in assay [2] (5-HT1A Function GTPγS IC50 (nM), antagonist potency, reversal of 8-OH-DPAT), 470 nM. Further, the Emax was 0% in assay [1] and 68% in assay [2] (setting [6]). The Ki in assay [3] (5-HT1A Receptor Affinity Ki (nM)) worked out at 31.3 nM; in assay [4] (5-HT Transporter Affinity Ki (nM)), 52 nM.
As to `CCCN(CCCc1c[nH]c2ccc(F)cc12)C1CCc2c(F)ccc(OC)c2C1` (single isomer, unassigned; (+)) [Compound 51a, (+)-5-fluoro-N-[3-(5-fluoro-1H-indol-3-yl)propyl]-8-methoxy-N-propyl-1,2,3,4-tetrahydro-2-naphthalenamine], the pEC50 in assay [1] was 7.78; in assay [2], 7.89. The compound further yielded a 5-HT1A Function cAMP (Emax) in assay [1] of 100%. For the same compound, the Emax in assay [2] (setting [7]) was determined as 69%. Also, the pKi in assay [3] is 8.77; in assay [4], 8.94.
As to `COC(=O)c1cccc2c1CC(N(CCCc1c[nH]c3c(F)cc(F)cc13)C1CCC1)CO2` (stereo not drawn) [Compound 136, Methyl 3-{cyclobutyl[3-(5,7-difluoro-1H-indol-3-yl)propyl]amino}chromane-5-carboxylate], the pEC50 in assay [1] is 6.20; in assay [2] it was 5.88. In addition, the Emax in assay [1] stood at 89%; in assay [2] (setting [7]) it was 95%. Further, the pKi is 7.56 in assay [3] and 6.69 in assay [4].
For `CCCN(CC1CCc2[nH]c3ccc(F)cc3c2C1)[C@H]1COc2c(F)ccc(C(N)=O)c2C1` (single isomer, unassigned; (-)) [Compound 177a], the results for the pIC50 in assay [1] (cells marked IC50 (antagonist)) and in assay [2] (setting [5]) were 6.08 and 5.53, respectively. The Emax in assay [1] was determined as 0%. The compound further came in with a 5-HT1A Function GTPγS (Imax) in assay [2] (setting [8]) of 100%. Also, the pKi in assay [3] is 7.22; in assay [4], 5.28.
For the compound `NC(=O)c1ccc(F)c2c1CC(N(CCCc1c[nH]c3cc(F)ccc13)CC1CC1)CO2` (stereo not drawn) [Compound 52a, 3-{(cyclopropylmethyl)[3-(6-fluoro-1H-indol-3-yl)propyl]amino}-8-fluorochromane-5-carboxamide], the pIC50 was 6.93 in assay [1] (cells marked IC50 (antagonist)) and 6.01 in assay [2] (setting [5]). In addition, the Emax in assay [1] was 0%; in assay [2] (setting [6]), 90%. Besides, the figures for the pKi in assay [3] and in assay [4] were 8.63 and 6.79, respectively.
As to `CCCN(CCCc1c[nH]c2ccccc12)C1CCc2cccc(OC)c2C1` (stereo not drawn) [Compound 50, N-[3-(1H-indol-3-yl)propyl]-8-methoxy-N-propyl-1,2,3,4-tetrahydronaphthalen-2-amine], the pEC50 in assay [1] was 8.60; in assay [2], 8.40. The Emax is 98% in assay [1] and 90% in assay [2] (setting [7]). In addition, the pKi in assay [3] was 8.67; in assay [4] it was 7.85.
In the case of `COc1ccc2[nH]cc(CCCN(C3CCC3)C3COc4c(F)ccc(C(N)=O)c4C3)c2c1` (stereo not drawn) [Compound 107, 3-{cyclobutyl[3-(5-methoxy-1H-indol-3-yl)propyl]amino}-8-fluorochromane-5-carboxamide], the results for the pIC50 in assay [1] (cells marked IC50 (antagonist)) and in assay [2] (setting [5]) were 7.35 and 6.60, respectively. Besides, the Emax amounted to 0% in assay [1] and 100% in assay [2] (setting [6]). Also, the pKi in assay [3] was 8.92; in assay [4], 6.08.
Regarding `CCCN(CCC(O)c1csc2ccc(F)cc12)C1COc2c(F)ccc(C(N)=O)c2C1` (stereo not drawn) [Compound 17, 8-fluoro-3-[[3-(5-fluoro-1-benzothien-3-yl)-3-hydroxypropyl](propyl)amino]chromane-5-carboxamide], the pEC50 in assay [1] was 7.12; in assay [2], 7.03. The Emax stood at 74.5% in assay [1] and 42% in assay [2] (setting [7]). For the same compound, the pKi in assay [3] was 9.06; in assay [4], 6.80.
On to `NC(=O)c1ccc(F)c2c1CC(N(CCCc1c[nH]c3c(F)cc(F)cc13)C1CCC1)CO2` (single isomer, unassigned; (+)) [Compound 9b, (+)-3-{cyclobutyl[3-(5,7-difluoro-1H-indol-3-yl)propyl]amino}-8-fluorochromane-5-carboxamide], for which the results for the pIC50 in assay [1] (cells marked IC50 (antagonist)) and in assay [2] (setting [5]) were 6.71 and 5.22, respectively. The 5-HT1A Function cAMP (Emax) in assay [1] turned out to be 0%. The 5-HT1A Function GTPγS (Imax) in assay [2] (setting [8]) is 74%. Further, the figures for the pKi in assay [3] and in assay [4] were 7.16 and 7.92, respectively.
